This experiment deals with human LPA1 (Homo sapiens, UniProt Q92633). As to the kind of experiment: In vitro functional assay of lysophosphatidic acid receptor 1 activity (calcium flux). The settings on record: B103 cells stably expressing human LPA1; Fluo-4 NW calcium flux after lysophosphatidic acid (18:1) at EC80; compounds 100 pM to 10 μM; read-out: LPA1 IC50. The format is cell-based. The method, then:
In vitro functional assay of lysophosphatidic acid receptor 1 activity
Primary compound plates were prepared in 100% DMSO (Sigma-Aldrich), secondary compound plates were prepared at 10× concentration in DiVEM (Invitrogen), and tertiary compound plates were prepared at 3x concentration in assay buffer containing HBSS (no Ca^+2/Mg^+2, Invitrogen) and 0.1% BSA (Sigma-Aldrich). Fluo-4 NW calcium assay dye (Invitrogen) was prepared as per manufacturer's recommendations in assay buffer. B103 cells stably expressing human LPA1(J. Chun lab, UCSD) were grown to confluency in DMEM media (Invitrogen) containing 10% FBS (ATCC), […] (Sigma-Aldrich) and […] Geneticin (Sigma-Aldrich), and detached with Accutase (Sigma-Aldrich) prior to assay. The freshly detached cells were resuspended in growth media and plated in black, clear-bottom 96-well plates (Costar) containing compound (i.e., secondary compound plate) at a density of 5×10^4 cells/well. Once plated, cells were left at room temperature for 30 minutes and then transferred to a 37° C., […] incubator for 24 hours. After 24 hours, the growth media was then removed and freshly prepared Fluo-4 NW calcium assay dye was added to cells. Compounds (i.e. tertiary compound plates) were then added back to the dye/cells, returned to the incubator for 30 minutes, and then kept at room temperature for an additional 30 minutes. Finally, lysophosphatidic acid (18:1) at the EC80 concentration was added and calcium flux measured using FlexStation 3 (Molecular Devices). Sigmoidal dose-response curves were generated by measuring […] over 45 sec and calculating the area under the curve. Dose response curves and IC50 values were generated using Prism (GraphPad). Compounds were tested at a final concentration range of 100 pM to 10 μM in 0.10% DMSO.
On the technique in general: Calcium assays in cells follow changes in intracellular calcium, usually with a dye or a luminescent sensor.

Some results are limits rather than exact numbers.

human LPA1, sequence (Q92633 whole entry): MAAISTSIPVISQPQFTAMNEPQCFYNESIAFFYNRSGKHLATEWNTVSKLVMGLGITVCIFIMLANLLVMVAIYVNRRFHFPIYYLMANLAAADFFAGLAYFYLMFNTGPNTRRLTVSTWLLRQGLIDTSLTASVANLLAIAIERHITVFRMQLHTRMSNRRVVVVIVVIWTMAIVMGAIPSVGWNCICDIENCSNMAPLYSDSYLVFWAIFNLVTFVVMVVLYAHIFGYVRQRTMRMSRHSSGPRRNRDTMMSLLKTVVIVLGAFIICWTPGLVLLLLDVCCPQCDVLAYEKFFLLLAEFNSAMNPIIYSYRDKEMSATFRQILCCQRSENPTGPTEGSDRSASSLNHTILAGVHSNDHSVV

What is called IC50 is the concentration that inhibits the measured activity by half. As to `COc1cc(Br)cnc1NC(=O)C1(c2ccccc2C(C)C)COC1` [Example 23, N-(5-bromo-3-methoxypyridin-2-yl)-3-(2-isopropylphenyl)oxetane-3-carboxamide], the IC50 lay within 100 to 1000 nM.

For the compound `CC(C)c1ccccc1C1(C(=O)Nc2ncc(Br)cc2OC(F)F)COC1` [Example 24, N-(5-bromo-3-(difluoromethoxy)pyridin-2-yl)-3-(2-isopropylphenyl)oxetane-3-carboxamide], the IC50 lay in the range of 10 to 100 nM.

Consider `COc1cc(OC(F)F)c(NC(=O)C2(c3ccccc3C(C)C)COC2)cn1` [Example 25, N-(4-(difluoromethoxy)-6-methoxypyridin-3-yl)-3-(2-isopropylphenyl)oxetane-3-carboxamide], for which the half-inhibitory concentration (IC50) was 100 to 1000 nM.

With `Cc1cc(OC(F)F)c(NC(=O)C2(c3ccccc3C(C)C)COC2)cn1` [Example 26, N-(4-(difluoromethoxy)-6-methylpyridin-3-yl)-3-(2-isopropylphenyl)oxetane-3-carboxamide], the half-maximal inhibitory concentration (IC50) lay in the range of 10 to 100 nM.

Regarding `CC(C)c1ccccc1C1(C(=O)Nc2ccc(F)cc2OC(F)F)COC1` [Example 27, N-(2-(difluoromethoxy)-4-fluorophenyl)-3-(2-isopropylphenyl)oxetane-3-carboxamide], the IC50 lay in the range of 10 to 100 nM.

With `COc1nc(Cl)ccc1NC(=O)C1(c2ccccc2C(C)C)COC1` [Example 28, N-(6-chloro-2-methoxypyridin-3-yl)-3-(2-isopropylphenyl)oxetane-3-carboxamide], the IC50 was more than 1000 nM.

In the case of `COc1ccc(NC(=O)C2(c3ccccc3C(C)C)COC2)c(OC2CC2)n1` [Example 29, N-(2-cyclopropoxy-6-methoxypyridin-3-yl)-3-(2-isopropylphenyl)oxetane-3-carboxamide], the IC50 was 100 to 1000 nM.

`COc1ccc(NC(=O)C2(c3ccccc3C(C)C)COC2)c(OC(C)C)n1` [Example 30, N-(2-isopropoxy-6-methoxypyridin-3-yl)-3-(2-isopropylphenyl)oxetane-3-carboxamide]: the IC50 fell in the range of 10 to 100 nM.

For the compound `COC[C@H](C)Oc1nc(OC)ccc1NC(=O)C1(c2ccccc2C(C)C)COC1` [Example 31, (S)-3-(2-isopropylphenyl)-N-(6-methoxy-2-((1-methoxypropan-2-yl)oxy)pyridin-3-yl)oxetane-3-carboxamide], the IC50 lay within 10 to 100 nM.

Consider `CC(C)c1ccccc1C1(C(=O)Nc2cnc(Cl)cc2OC2CC2)COC1` [Example 32, N-(6-chloro-4-cyclopropoxypyridin-3-yl)-3-(2-isopropylphenyl)oxetane-3-carboxamide], for which the IC50 lay within 100 to 1000 nM.

`CC(C)Oc1cc(Cl)ncc1NC(=O)C1(c2ccccc2C(C)C)COC1` [Example 33, N-(6-chloro-4-isopropoxypyridin-3-yl)-3-(2-isopropylphenyl)oxetane-3-carboxamide]: the IC50 was in the range of 10 to 100 nM.

Consider `COC[C@H](C)Oc1cc(Cl)ncc1NC(=O)C1(c2ccccc2C(C)C)COC1` [Example 34, (S)-N-(6-chloro-4-((1-methoxypropan-2-yl)oxy)pyridin-3-yl)-3-(2-isopropylphenyl)oxetane-3-carboxamide], for which the IC50 lay in the range of 10 to 100 nM.

For the compound `COc1cnc(NC(=O)C2(c3ccccc3C(C)C)COC2)c(OC(F)F)c1` [Example 35, N-(3-(difluoromethoxy)-5-methoxypyridin-2-yl)-3-(2-isopropylphenyl)oxetane-3-carboxamide], the IC50 was 100 to 1000 nM.

Consider `COc1cc(C)ncc1NC(=O)C1(c2ccccc2C(C)C)COC1` [Example 36, 3-(2-isopropylphenyl)-N-(4-methoxy-6-methylpyridin-3-yl)oxetane-3-carboxamide], for which the IC50 is more than 1000 nM.

In the case of `Cc1ccc(NC(=O)C2(c3ncccc3C(C)C)COC2)c(OC(F)F)n1` [Example 37, N-(2-(difluoromethoxy)-6-methylpyridin-3-yl)-3-(3-isopropylpyridin-2-yl)oxetane-3-carboxamide], the half-inhibitory concentration (IC50) fell in the range of 100 to 1000 nM.

For the compound `Cc1ccc(NC(=O)C2(c3ccccc3C(C)C)CC(N(C)C)C2)c(OC(F)F)n1` (stereo not shown) [Example 39, N-(2-(difluoromethoxy)-6-methylpyridin-3-yl)-3-(dimethylamino)-1-(2-isopropylphenyl)cyclobutane-1-carboxamide], the IC50 fell in the range of 100 to 1000 nM.

In the case of `Cc1ccc(NC(=O)C2(c3ccccc3C(C)C)CC(N3CCC3)C2)c(OC(F)F)n1` (stereo not shown) [Example 41, 3-(azetidin-1-yl)-N-(2-(difluoromethoxy)-6-methylpyridin-3-yl)-1-(2-isopropylphenyl)cyclobutane-1-carboxamide], the IC50 is more than 1000 nM.

For the compound `Cc1ccc(NC(=O)C2(c3ccccc3C(C)C)CC(N3CC(O)C3)C2)c(OC(F)F)n1` (stereo not shown) [Example 42, N-(2-(difluoromethoxy)-6-methylpyridin-3-yl)-3-(3-hydroxyazetidin-1-yl)-1-(2-isopropylphenyl)cyclobutane-1-carboxamide], the half-maximal inhibitory concentration (IC50) is 100 to 1000 nM.

On to `Cc1ccc(NC(=O)C2(c3ccccc3C(C)C)CC(N(C)S(C)(=O)=O)C2)c(OC(F)F)n1` (stereo not shown) [Example 44, N-(2-(difluoromethoxy)-6-methylpyridin-3-yl)-1-(2-isopropylphenyl)-3-(N-methylmethylsulfonamido)cyclobutane-1-carboxamide], for which the IC50 lay in the range of 100 to 1000 nM.

Regarding `COc1ccc(NC(=O)C2(c3ccccc3C(C)C)CC(CC(=O)O)C2)c(OC(F)F)n1` (stereo not shown) [Example 46, 2-(3-((2-(difluoromethoxy)-6-methoxypyridin-3-yl)carbamoyl)-3-(2-isopropylphenyl)cyclobutyl)acetic acid], the IC50 is less than 10 nM.

On to `CC(C)c1ccccc1C1(C(=O)Nc2ncc(Cl)cc2OC(F)F)CC(CC(=O)O)C1` (stereo not shown) [Example 47, 2-(3-((5-chloro-3-(difluoromethoxy)pyridin-2-yl)carbamoyl)-3-(2-isopropylphenyl)cyclobutyl)acetic acid], for which the IC50 lay within 10 to 100 nM.

On to `Cc1ccc(NC(=O)C2(c3ncccc3C(C)C)CC(CC(=O)O)C2)c(OC(F)F)n1` (stereo not shown) [Example 48, 2-(3-((2-(difluoromethoxy)-6-methylpyridin-3-y1)carbamoyl)-3-(3-isopropylpyridin-2-yl)cyclobutyl)acetic acid], for which the half-inhibitory concentration (IC50) was in the range of 10 to 100 nM.

Regarding `Cc1ccc(NC(=O)C2(c3ccccc3C(C)C)CC(O)(c3ccc(C#N)cn3)C2)c(OC(F)F)n1` (stereo not shown) [Example 50, 3-(5-cyanopyridin-2-yl)-N-(2-(difluoromethoxy)-6-methylpyridin-3-yl)-3-hydroxy-1-(2-isopropylphenyl)cyclobutane-1-carboxamide], the IC50 lay in the range of 10 to 100 nM.

On to `CCC1(O)CC(C(=O)Nc2ccc(C)nc2OC(F)F)(c2ccccc2C(C)C)C1` (stereo not shown) [Example 52, N-(2-(difluoromethoxy)-6-methylpyridin-3-yl)-3-ethyl-3-hydroxy-1-(2-isopropylphenyl)cyclobutane-1-carboxamide], for which the half-inhibitory concentration (IC50) lay in the range of 10 to 100 nM.

With `COc1cc(Cl)ncc1NC(=O)C1(c2ccccc2C(C)C)CC(O)(C(F)(F)C(=O)O)C1` (stereo not shown) [Example 56, 2-(3-((6-chloro-4-methoxypyridin-3-yl)carbamoyl)-1-hydroxy-3-(2-isopropylphenyl)cyclobutyl)-2,2-difluoroacetic acid], the IC50 lay within 10 to 100 nM.

As for `Cc1ccc(NC(=O)C2(c3ccccc3C(C)C)CC(O)C2)c(OC(F)F)n1` (stereo not shown) [Example 58, N-(2-(difluoromethoxy)-6-methylpyridin-3-yl)-3-hydroxy-1-(2-isopropylphenyl)cyclobutane-1-carboxamide], the IC50 is 100 to 1000 nM.

Consider `Cc1ccc(NC(=O)C2(c3ccccc3C(C)C)CC(CO)C2)c(OC(F)F)n1` (stereo not shown) [Example 59, N-(2-(difluoromethoxy)-6-methylpyridin-3-yl)-3-(hydroxymethyl)-1-(2-isopropylphenyl)cyclobutane-1-carboxamide], for which the IC50 fell in the range of 10 to 100 nM.

In the case of `COc1ccc(NC(=O)C2(c3ccccc3C(C)C)CC(CO)C2)c(OC)n1` (stereo not shown) [Example 60, N-(2,6-dimethoxypyridin-3-yl)-3-(hydroxymethyl)-1-(2-isopropylphenyl)cyclobutane-1-carboxamide], the IC50 lay in the range of 10 to 100 nM.

With `Cc1ccc(NC(=O)C2(c3ccccc3C(C)C)CC(F)(F)C2)c(OC(F)F)n1` [Example 61, N-(2-(difluoromethoxy)-6-methylpyridin-3-yl)-3,3-difluoro-1-(2-isopropylphenyl)cyclobutane-1-carboxamide], the half-maximal inhibitory concentration (IC50) was more than 1000 nM.

On to `Cc1ccc(NC(=O)C2(c3ccccc3C(C)C)CC(F)C2)c(OC(F)F)n1` (stereo not shown) [Example 62, N-(2-(difluoromethoxy)-6-methylpyridin-3-yl)-3-fluoro-1-(2-isopropylphenyl)cyclobutane-1-carboxamide], for which the IC50 was 100 to 1000 nM.

On to `Cc1ccc(NC(=O)C2(c3ccccc3C(C)C)CC(CS(C)(=O)=O)C2)c(OC(F)F)n1` (stereo not shown) [Example 64, N-(2-(difluoromethoxy)-6-methylpyridin-3-yl)-1-(2-isopropylphenyl)-3-((methylsulfonyl)methyl)cyclobutane-1-carboxamide], for which the IC50 lay within 100 to 1000 nM.

The record behind these values is patent US20250179045A1, “LPAR1 ANTAGONISTS AND USES THEREOF” (Contineum Therapeutics, Inc., priority 2021, published 2025).
